In ChEMBL document CHEMBL4196026, “Novel Tacrine-Hydroxyphenylbenzimidazole hybrids as potential multitarget drug candidates for Alzheimer's disease” (Eur J Med Chem, 2018):
Calls of active or inactive are those of the source. The calls are words filed in the database; no cut-off is given here.

Key:
[1] = test system: SH-SY5Y; test: Neuroprotection against amyloid beta (1 to 42)-induced toxicity in human SH-SY5Y cells assessed as increase in cell viability at 1 uM preincubated for 1 hr followed by amyloid beta (1 to 42) addition and measured after 24 hrs MTT assay; type: functional, cell-based
[2] = biological target: Acetylcholinesterase (Electrophorus electricus, UniProt O42275); test: Inhibition of electric eel AChE using acetylthiocholine iodide as substrate preincubated for 15 mins followed by addition of substrate measured after 5 mins
[3] = Copper chelating activity assessed as inhibition of Cu2+-induced amyloid beta (1 to 42) aggregation at 40 uM measured after 24 hrs by ThT fluorescence assay relative to control
[4] = test system: SH-SY5Y; test: Neuroprotection against Fe/LAscH(-)-induced toxicity in human SH-SY5Y cells assessed as increase in cell viability at 1 uM preincubated for 1 hr followed by Fe/LAscH(-) addition and measured after 24 hrs MTT assay; type: functional, cell-based
[5] = biological target: Amyloid-beta precursor protein (Homo sapiens) (UniProt P05067); test: Inhibition of self-induced amyloid beta (1 to 42) (unknown origin) aggregation at 40 uM measured after 24 hrs by ThT fluorescence assay relative to control
[6] = test system: SH-SY5Y; test: Cytotoxicity against human SH-SY5Y cells assessed as reduction in cell viability at 1 uM after 24 hrs MTT assay; type: cell-based
[7] = Copper chelating activity assessed as inhibition of Cu2+-induced amyloid beta (1 to 42) aggregation at 80 uM measured after 24 hrs by ThT fluorescence assay relative to control
[8] = biological target: Amyloid-beta precursor protein (Homo sapiens) (UniProt P05067); test: Inhibition of self-induced amyloid beta (1 to 42) (unknown origin) aggregation at 50 uM measured after 24 hrs by uranyl acetate staining based TEM analysis
[9] = Copper chelating activity assessed as inhibition of Cu2+-induced amyloid beta (1 to 42) aggregation at 50 uM measured after 24 hrs by uranyl acetate staining based TEM analysis
[10] = test system: SH-SY5Y; test: Neuroprotection against amyloid beta (1 to 42)-induced toxicity in human SH-SY5Y cells assessed as increase in cell viability at 2.5 uM preincubated for 1 hr followed by amyloid beta (1 to 42) addition and measured after 24 hrs MTT assay; type: functional, cell-based
[11] = test system: SH-SY5Y; test: Neuroprotection against Fe/LAscH(-)-induced toxicity in human SH-SY5Y cells assessed as increase in cell viability at 2.5 uM preincubated for 1 hr followed by Fe/LAscH(-) addition and measured after 24 hrs MTT assay; type: functional, cell-based
[12] = test system: SH-SY5Y; test: Cytotoxicity against human SH-SY5Y cells assessed as reduction in cell viability at 2.5 uM after 24 hrs MTT assay; type: cell-based
[13] = Metal chelating activity assessed as compound-Cu2+ complex formation at pH 7.4
[14] = test system: SH-SY5Y; test: Neuroprotection against amyloid beta (1 to 42)-induced toxicity in human SH-SY5Y cells assessed as increase in cell viability at 0.1 uM preincubated for 1 hr followed by amyloid beta (1 to 42) addition and measured after 24 hrs MTT assay; type: functional, cell-based
[15] = test system: SH-SY5Y; test: Neuroprotection against Fe/LAscH(-)-induced toxicity in human SH-SY5Y cells assessed as increase in cell viability at 0.1 uM preincubated for 1 hr followed by Fe/LAscH(-) addition and measured after 24 hrs MTT assay; type: functional, cell-based
[16] = test system: SH-SY5Y; test: Cytotoxicity against human SH-SY5Y cells assessed as reduction in cell viability at 0.1 uM after 24 hrs MTT assay; type: cell-based

Acetylcholinesterase, sequence (O42275 whole entry): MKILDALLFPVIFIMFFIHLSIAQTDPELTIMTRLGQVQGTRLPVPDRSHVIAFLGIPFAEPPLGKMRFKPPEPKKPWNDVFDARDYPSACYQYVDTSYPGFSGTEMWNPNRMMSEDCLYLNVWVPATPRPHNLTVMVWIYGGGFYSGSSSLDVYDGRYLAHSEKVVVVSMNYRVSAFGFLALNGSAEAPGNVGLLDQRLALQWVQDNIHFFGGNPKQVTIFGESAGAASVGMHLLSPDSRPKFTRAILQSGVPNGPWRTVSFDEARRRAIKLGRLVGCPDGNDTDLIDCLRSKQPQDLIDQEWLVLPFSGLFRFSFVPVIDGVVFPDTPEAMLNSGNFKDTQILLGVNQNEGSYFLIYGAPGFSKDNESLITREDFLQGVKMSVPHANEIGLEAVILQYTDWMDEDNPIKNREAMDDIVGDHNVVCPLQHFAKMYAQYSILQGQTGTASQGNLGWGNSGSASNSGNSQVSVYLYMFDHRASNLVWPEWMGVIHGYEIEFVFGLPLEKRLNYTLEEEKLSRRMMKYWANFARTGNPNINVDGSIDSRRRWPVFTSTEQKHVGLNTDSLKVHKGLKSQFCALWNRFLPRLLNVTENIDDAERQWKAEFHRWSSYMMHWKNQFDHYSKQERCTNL
Amyloid-beta precursor protein (Homo sapiens), sequence (P05067 whole entry): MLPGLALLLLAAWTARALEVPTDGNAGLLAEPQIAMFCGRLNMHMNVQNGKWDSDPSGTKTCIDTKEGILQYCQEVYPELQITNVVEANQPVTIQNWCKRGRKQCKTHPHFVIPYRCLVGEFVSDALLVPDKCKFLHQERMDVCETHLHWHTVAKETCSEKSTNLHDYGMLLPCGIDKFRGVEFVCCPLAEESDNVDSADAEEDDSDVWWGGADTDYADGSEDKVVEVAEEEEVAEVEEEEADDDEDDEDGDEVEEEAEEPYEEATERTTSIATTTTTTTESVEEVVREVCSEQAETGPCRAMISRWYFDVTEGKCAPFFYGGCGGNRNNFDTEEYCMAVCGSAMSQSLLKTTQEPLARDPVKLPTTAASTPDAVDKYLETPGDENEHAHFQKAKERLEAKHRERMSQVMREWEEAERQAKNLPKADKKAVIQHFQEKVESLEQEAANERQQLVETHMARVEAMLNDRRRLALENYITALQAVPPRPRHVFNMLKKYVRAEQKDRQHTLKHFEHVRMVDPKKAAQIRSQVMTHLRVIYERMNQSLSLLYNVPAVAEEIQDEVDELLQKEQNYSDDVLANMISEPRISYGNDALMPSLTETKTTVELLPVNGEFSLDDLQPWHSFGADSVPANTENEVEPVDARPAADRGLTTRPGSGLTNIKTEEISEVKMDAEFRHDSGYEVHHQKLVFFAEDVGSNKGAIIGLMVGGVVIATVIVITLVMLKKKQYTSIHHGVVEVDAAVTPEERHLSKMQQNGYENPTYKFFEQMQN

| Compound | Activity [1] | IC50 ([2]; read-out: IC50) [nM] | Activity [4] | Activity [6] | inhibition [7] [%] | also measured |
| --- | --- | --- | --- | --- | --- | --- |
| O=C(NCCNc1c2c(nc3cc(Cl)ccc13)CCCC2)c1ccc2[nH]c(-c3ccccc3O)nc2c1 | inactive | 6.3 | Active | Non-Toxic |  | inhibition [3]: 20.9%; inhibition [5]: 21.9% |
| O=C(NCCNc1c2c(nc3ccccc13)CCCC2)c1ccc2[nH]c(-c3ccccc3O)nc2c1 |  | 36.4 |  |  | 49.4 |  |
| O=C(NCCCCNc1c2c(nc3cc(Cl)ccc13)CCCC2)c1ccc2[nH]c(-c3ccccc3O)nc2c1 | Active | 142 | Active | Non-Toxic |  |  |
| O=C(NCCCCNc1c2c(nc3ccccc13)CCCC2)c1ccc2[nH]c(-c3ccccc3O)nc2c1 |  | 208 |  |  | 65.5 |  |
| O=C(NCCCNc1c2c(nc3ccccc13)CCCC2)c1ccc2[nH]c(-c3ccccc3O)nc2c1 |  | 30.9 |  |  | 77.3 | inhibition [8]: Active; inhibition [9]: Active |
| O=C(NCC(O)CNc1c2c(nc3ccccc13)CCCC2)c1ccc2[nH]c(-c3ccccc3O)nc2c1 (centres undefined) |  | 16.8 |  |  | 59.5 | Activity [10]: Active; Activity [11]: Active; Activity [12]: Non-Toxic |
| O=C(NCCCNc1c2c(nc3cc(Cl)ccc13)CCCC2)c1ccc2[nH]c(-c3ccccc3O)nc2c1 |  | 23.7 |  |  | 55.8 | Kd [13]: 0.01 nM; Activity [14]: Active; Activity [15]: Active; Activity [16]: Non-Toxic |
| Oc1ccccc1-c1nc2ccccc2[nH]1 |  |  |  |  |  | IC50 [2]: Not Active |
| O=C(NCC(O)CNc1c2c(nc3cc(Cl)ccc13)CCCC2)c1ccc2[nH]c(-c3ccccc3O)nc2c1 (centres undefined) | Active | 18.1 | Active | Non-Toxic |  |  |
